Results: BindingDB's records for patent WO2025049746 (Eikon Therapeutics, 2025)

What was measured:
[1] = biological target: Bifunctional 3'-5' exonuclease/ATP-dependent helicase WRN (Homo sapiens, UniProt Q14191); experiment: ADP-Glo Kinase Assay
Method: ATPase activity was measured using the ADP-Glo Kinase Assay following the manufacturers recommended protocol.

[2] = biological target: T1, Bifunctional 3'-5' exonuclease/ATP-dependent helicase WRN [480-1251] (UniProt Q14191); experiment: Biochemical Activity Assays
T1 construct: 480-1251
T1 sequence (Q14191 480-1251): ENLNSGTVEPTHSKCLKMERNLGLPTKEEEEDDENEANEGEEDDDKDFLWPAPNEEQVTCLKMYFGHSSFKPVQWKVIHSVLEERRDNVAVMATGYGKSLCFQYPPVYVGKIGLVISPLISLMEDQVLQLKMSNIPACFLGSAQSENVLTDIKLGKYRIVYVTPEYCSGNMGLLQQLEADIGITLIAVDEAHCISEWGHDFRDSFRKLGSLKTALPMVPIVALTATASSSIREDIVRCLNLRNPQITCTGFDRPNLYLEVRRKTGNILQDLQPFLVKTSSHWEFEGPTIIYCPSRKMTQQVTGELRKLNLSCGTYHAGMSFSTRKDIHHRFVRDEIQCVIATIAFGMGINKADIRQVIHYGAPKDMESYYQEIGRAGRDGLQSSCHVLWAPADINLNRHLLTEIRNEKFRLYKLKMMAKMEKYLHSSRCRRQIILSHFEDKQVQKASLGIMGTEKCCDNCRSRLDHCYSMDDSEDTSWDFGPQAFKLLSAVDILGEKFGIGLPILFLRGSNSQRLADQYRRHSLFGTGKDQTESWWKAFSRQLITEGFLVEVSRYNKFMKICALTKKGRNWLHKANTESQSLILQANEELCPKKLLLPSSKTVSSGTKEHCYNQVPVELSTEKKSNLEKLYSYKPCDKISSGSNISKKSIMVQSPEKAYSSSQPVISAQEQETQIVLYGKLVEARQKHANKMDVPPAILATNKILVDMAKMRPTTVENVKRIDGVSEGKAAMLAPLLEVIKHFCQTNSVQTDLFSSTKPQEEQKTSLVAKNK

Chain of Bifunctional 3'-5' exonuclease/ATP-dependent helicase WRN (Q14191 whole entry): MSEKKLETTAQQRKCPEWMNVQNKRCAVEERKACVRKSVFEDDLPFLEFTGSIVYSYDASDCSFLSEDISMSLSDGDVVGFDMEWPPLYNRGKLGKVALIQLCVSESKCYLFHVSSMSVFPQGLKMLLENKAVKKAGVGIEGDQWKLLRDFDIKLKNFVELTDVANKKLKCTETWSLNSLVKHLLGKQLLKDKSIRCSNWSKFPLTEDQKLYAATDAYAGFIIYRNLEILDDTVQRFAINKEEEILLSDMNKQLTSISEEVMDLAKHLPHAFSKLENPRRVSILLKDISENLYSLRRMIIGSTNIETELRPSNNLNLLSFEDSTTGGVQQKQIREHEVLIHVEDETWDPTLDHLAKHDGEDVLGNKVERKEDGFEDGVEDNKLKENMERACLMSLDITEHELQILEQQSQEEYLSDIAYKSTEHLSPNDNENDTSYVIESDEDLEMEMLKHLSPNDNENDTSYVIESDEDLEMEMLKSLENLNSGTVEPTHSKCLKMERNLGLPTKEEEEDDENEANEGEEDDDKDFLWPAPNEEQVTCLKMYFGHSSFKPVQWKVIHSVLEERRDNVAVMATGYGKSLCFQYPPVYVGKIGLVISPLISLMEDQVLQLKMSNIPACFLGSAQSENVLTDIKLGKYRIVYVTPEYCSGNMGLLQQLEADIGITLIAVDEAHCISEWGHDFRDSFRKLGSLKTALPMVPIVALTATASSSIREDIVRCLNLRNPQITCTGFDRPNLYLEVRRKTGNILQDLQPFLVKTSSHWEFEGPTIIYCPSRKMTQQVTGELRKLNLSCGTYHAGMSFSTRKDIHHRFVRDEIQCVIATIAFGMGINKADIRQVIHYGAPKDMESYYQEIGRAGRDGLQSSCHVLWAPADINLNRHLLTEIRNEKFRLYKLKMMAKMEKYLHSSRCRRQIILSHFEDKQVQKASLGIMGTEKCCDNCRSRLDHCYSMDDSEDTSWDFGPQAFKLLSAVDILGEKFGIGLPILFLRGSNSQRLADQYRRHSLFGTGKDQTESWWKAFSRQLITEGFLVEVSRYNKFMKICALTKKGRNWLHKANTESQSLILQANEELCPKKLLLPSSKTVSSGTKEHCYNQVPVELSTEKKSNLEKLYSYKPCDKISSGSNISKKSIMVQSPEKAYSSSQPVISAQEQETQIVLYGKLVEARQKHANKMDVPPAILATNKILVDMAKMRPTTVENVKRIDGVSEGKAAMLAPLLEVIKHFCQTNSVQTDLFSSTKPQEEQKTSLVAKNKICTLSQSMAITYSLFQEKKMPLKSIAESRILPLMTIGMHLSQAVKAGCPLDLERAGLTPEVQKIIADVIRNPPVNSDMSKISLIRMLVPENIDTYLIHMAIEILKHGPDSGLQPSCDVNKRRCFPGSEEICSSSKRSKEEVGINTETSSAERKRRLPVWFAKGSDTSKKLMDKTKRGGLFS

SMILES | IC50 [1] | IC50 [2]
CCc1c(N2CCN(C(=O)c3ncnc(C)c3O)CC2)c(=O)n2nc(-c3ccn4ncnc4c3)nc2n1CC(=O)Nc1ccc(C(F)(F)F)cc1Cl [WO2025049746, Example 220] | 111 nM | 96 nM
CCc1c(N2CCN(C(=O)c3ncnc(C)c3O)CC2)c(=O)n2nc(-c3cc(C)c4c(c3)COC4(C)C)nc2n1CC(=O)Nc1ccc(C(F)(F)F)cc1Cl [WO2025049746, Example 221] | 47 nM | 56 nM
CCc1c(N2CCN(C(=O)c3ncnc(C)c3O)CC2)c(=O)n2nc(-c3cccc4c3COC(C)(C)C4)nc2n1CC(=O)Nc1ccc(C(F)(F)F)cc1Cl [WO2025049746, Example 222] | 40 nM | 45 nM
CCc1c(N2CCN(C(=O)c3ncnc(C)c3O)CC2)c(=O)n2nc(-c3cccc4c3COC(C)(C)C4)nc2n1CC(=O)Nc1ccc(C(F)(F)F)cc1Cl [WO2025049746, Example 223] | 3830 nM | 1550 nM
CCc1c(N2CCN(C(=O)c3ncnc(C)c3O)CC2)c(=O)n2nc(-c3cccc4c3OC(F)(F)O4)nc2n1CC(=O)Nc1ccc(C(F)(F)F)cc1Cl [WO2025049746, Example 232] | 77 nM | 67 nM
CCc1c(N2CCN(C(=O)c3ncnc(C)c3O)CC2)c(=O)n2nc(-c3ccn4nccc4c3C)nc2n1CC(=O)Nc1ccc(C(F)(F)F)cc1Cl [WO2025049746, Example 239] | 21 nM | 22 nM
CCc1c(N2CCN(C(=O)c3ncnc(C)c3O)CC2)c(=O)n2nc(-c3cc(C)n4nccc4c3)nc2n1CC(=O)Nc1ccc(C(F)(F)F)cc1Cl [WO2025049746, Example 240] | 24 nM | 27 nM
CCc1c(N2CCN(C(=O)c3ncnc(C)c3O)CC2)c(=O)n2nc(-c3ccn4nccc4c3F)nc2n1CC(=O)Nc1ccc(C(F)(F)F)cc1Cl [WO2025049746, Example 241] | 18 nM | 19 nM
CCc1c(N2CCN(C(=O)c3ncnc(C)c3O)CC2)c(=O)n2nc(-c3cc4ccnn4cc3F)nc2n1CC(=O)Nc1ccc(C(F)(F)F)cc1Cl [WO2025049746, Example 242] | 19 nM | 18 nM
CCc1c(N2CCN(C(=O)c3ncnc(C)c3O)CC2)c(=O)n2nc(-c3cc4ccnn4cc3C)nc2n1CC(=O)Nc1ccc(C(F)(F)F)cc1Cl [WO2025049746, Example 243] | 26 nM | 34 nM
CCc1c(N2CCN(C(=O)c3ncnc(C)c3O)CC2)c(=O)n2nc(-c3ccc4nn(C(F)F)cc4c3)nc2n1CC(=O)Nc1ccc(C(F)(F)F)cc1Cl [WO2025049746, Example 248] | 24 nM | 26 nM
CCc1c(N2CCN(C(=O)c3ncnc(C)c3O)CC2)c(=O)n2nc(-c3cc4c(cc3F)O[C@@H](C)C4)nc2n1CC(=O)Nc1ccc(C(F)(F)F)cc1Cl [WO2025049746, Example 249] | 25 nM | 26 nM
CCc1c(N2CCN(C(=O)c3ncnc(C)c3O)CC2)c(=O)n2nc(-c3cc4c(cc3F)O[C@H](C)C4)nc2n1CC(=O)Nc1ccc(C(F)(F)F)cc1Cl [WO2025049746, Example 250] | 22 nM | 20 nM
CCc1c(N2CCN(C(=O)c3ncnc(C)c3O)CC2)c(=O)n2nc(-c3cnc4c(ccn4C)c3)nc2n1CC(=O)Nc1ccc(C(F)(F)F)cc1Cl [WO2025049746, Example 252] | 19 nM | 21 nM
CCc1c(N2CCN(C(=O)c3ncnc(C)c3O)CC2)c(=O)n2nc(-c3ccc4nc(C)cn4c3)nc2n1CC(=O)Nc1ccc(C(F)(F)F)cc1Cl [WO2025049746, Example 255] | 23 nM | 24 nM
CCc1c(N2CCN(C(=O)c3ncnc(C)c3O)CC2)c(=O)n2nc(-c3cc4cn(C)nc4cc3F)nc2n1CC(=O)Nc1ccc(C(F)(F)F)cc1Cl [WO2025049746, Example 256] | 23 nM | 22 nM
CCc1c(N2CCN(C(=O)c3ncnc(C)c3O)CC2)c(=O)n2nc(-c3cc4c(cc3F)COCC4)nc2n1CC(=O)Nc1ccc(C(F)(F)F)cc1Cl [WO2025049746, Example 260] | 22 nM | 21 nM

Further lines, results first:

IC50 [1] | IC50 [2] | SMILES
47 nM | 47 nM | CCc1c(N2CCN(C(=O)c3ncnc(C)c3O)CC2)c(=O)n2nc(-c3ccc4c(c3)CC(F)(F)C4)nc2n1CC(=O)Nc1ccc(C(F)(F)F)cc1Cl [WO2025049746, Example 224]
27 nM | 32 nM | CCc1c(N2CCN(C(=O)c3ncnc(C)c3O)CC2)c(=O)n2nc(-c3ccc4oc(=O)n(C)c4c3)nc2n1CC(=O)Nc1ccc(C(F)(F)F)cc1Cl [WO2025049746, Example 225]
74 nM | 98 nM | CCc1c(N2CCN(C(=O)c3ncnc(C)c3O)CC2)c(=O)n2nc(-c3ccc4c(c3)CC[C@H]4OC(F)F)nc2n1CC(=O)Nc1ccc(C(F)(F)F)cc1Cl [WO2025049746, Example 226]
95 nM | 89 nM | CCc1c(N2CCN(C(=O)c3ncnc(C)c3O)CC2)c(=O)n2nc(-c3ccc4c(c3)CCC4OC(F)F)nc2n1CC(=O)Nc1ccc(C(F)(F)F)cc1Cl (centres undefined) [WO2025049746, Example 227]
32 nM | 28 nM | CCc1c(N2CCN(C(=O)c3ncnc(C)c3O)CC2)c(=O)n2nc(-c3ccc4c(c3)CCO[C@@H]4C)nc2n1CC(=O)Nc1ccc(C(F)(F)F)cc1Cl [WO2025049746, Example 228]
27 nM | 30 nM | CCc1c(N2CCN(C(=O)c3ncnc(C)c3O)CC2)c(=O)n2nc(-c3ccc4c(c3)CCO[C@H]4C)nc2n1CC(=O)Nc1ccc(C(F)(F)F)cc1Cl [WO2025049746, Example 229]
39 nM | 45 nM | CCc1c(N2CCN(C(=O)c3ncnc(C)c3O)CC2)c(=O)n2nc(-c3ccc4c(c3)C[C@H](C)O4)nc2n1CC(=O)Nc1ccc(C(F)(F)F)cc1Cl [WO2025049746, Example 230]
40 nM | 49 nM | CCc1c(N2CCN(C(=O)c3ncnc(C)c3O)CC2)c(=O)n2nc(-c3ccc4c(c3)C[C@@H](C)O4)nc2n1CC(=O)Nc1ccc(C(F)(F)F)cc1Cl [WO2025049746, Example 231]
21 nM | 24 nM | CCc1c(N2CCN(C(=O)c3ncnc(C)c3O)CC2)c(=O)n2nc(-c3ccc4c(c3)oc(=O)n4C)nc2n1CC(=O)Nc1ccc(C(F)(F)F)cc1Cl [WO2025049746, Example 233]
67 nM | 75 nM | CCc1c(N2CCN(C(=O)c3ncnc(C)c3O)CC2)c(=O)n2nc(-c3ccc4nonc4c3)nc2n1CC(=O)Nc1ccc(C(F)(F)F)cc1Cl [WO2025049746, Example 234]
23 nM | 26 nM | CCc1c(N2CCN(C(=O)c3ncnc(C)c3O)CC2)c(=O)n2nc(-c3ccc4nn(C)cc4c3)nc2n1CC(=O)Nc1ccc(C(F)(F)F)cc1Cl [WO2025049746, Example 235]
25 nM | 25 nM | CCc1c(N2CCN(C(=O)c3ncnc(C)c3O)CC2)c(=O)n2nc(-c3ccc4ncn(C)c4c3)nc2n1CC(=O)Nc1ccc(C(F)(F)F)cc1Cl [WO2025049746, Example 236]
82 nM | 84 nM | CCc1c(N2CCN(C(=O)c3ncnc(C)c3O)CC2)c(=O)n2nc(-c3ccc4nc(C)oc4c3)nc2n1CC(=O)Nc1ccc(C(F)(F)F)cc1Cl [WO2025049746, Example 237]
30 nM | 33 nM | CCc1c(N2CCN(C(=O)c3ncnc(C)c3O)CC2)c(=O)n2nc(-c3ccc4c(c3C)CCO4)nc2n1CC(=O)Nc1ccc(C(F)(F)F)cc1Cl [WO2025049746, Example 238]
24 nM | 23 nM | CCc1c(N2CCN(C(=O)c3ncnc(C)c3O)CC2)c(=O)n2nc(-c3cc4c(cc3F)[C@@H](OC)CC4)nc2n1CC(=O)Nc1ccc(C(F)(F)F)cc1Cl [WO2025049746, Example 244]
26 nM | 28 nM | CCc1c(N2CCN(C(=O)c3ncnc(C)c3O)CC2)c(=O)n2nc(-c3cc4c(cc3F)[C@H](OC)CC4)nc2n1CC(=O)Nc1ccc(C(F)(F)F)cc1Cl [WO2025049746, Example 245]
37 nM | 42 nM | CCc1c(N2CCN(C(=O)c3ncnc(C)c3O)CC2)c(=O)n2nc(-c3ccn4c(C)nnc4c3)nc2n1CC(=O)Nc1ccc(C(F)(F)F)cc1Cl [WO2025049746, Example 246]
26 nM | 27 nM | CCc1c(N2CCN(C(=O)c3ncnc(C)c3O)CC2)c(=O)n2nc(-c3ccn4nc(C)cc4c3)nc2n1CC(=O)Nc1ccc(C(F)(F)F)cc1Cl [WO2025049746, Example 247]
26 nM | 25 nM | CCc1c(N2CCN(C(=O)c3ncnc(C)c3O)CC2)c(=O)n2nc(-c3ccn4nc(F)cc4c3)nc2n1CC(=O)Nc1ccc(C(F)(F)F)cc1Cl [WO2025049746, Example 251]
24 nM | 24 nM | CCc1c(N2CCN(C(=O)c3ncnc(C)c3O)CC2)c(=O)n2nc(-c3ccc4ccnn4c3)nc2n1CC(=O)Nc1ccc(C(F)(F)F)cc1Cl [WO2025049746, Example 253]
25 nM | 24 nM | CCc1c(N2CCN(C(=O)c3ncnc(C)c3O)CC2)c(=O)n2nc(-c3ccc4c(c3)ncn4C)nc2n1CC(=O)Nc1ccc(C(F)(F)F)cc1Cl [WO2025049746, Example 254]
28 nM | 30 nM | CCc1c(N2CCN(C(=O)c3ncnc(C)c3O)CC2)c(=O)n2nc(-c3ccc4c(c3)CSC4)nc2n1CC(=O)Nc1ccc(C(F)(F)F)cc1Cl [WO2025049746, Example 257]
16 nM | 15 nM | CCc1c(N2CCN(C(=O)c3ncnc(C)c3O)CC2)c(=O)n2nc(-c3ccc4n[nH]cc4c3)nc2n1CC(=O)Nc1ccc(C(F)(F)F)cc1Cl [WO2025049746, Example 258]
29 nM | 29 nM | CCc1c(N2CCN(C(=O)c3ncnc(C)c3O)CC2)c(=O)n2nc(-c3ccc4ncn(C)c(=O)c4c3)nc2n1CC(=O)Nc1ccc(C(F)(F)F)cc1Cl [WO2025049746, Example 259]
31 nM | 33 nM | CCc1c(N2CCN(C(=O)c3ncnc(C)c3O)CC2)c(=O)n2nc(-c3ccc4c(c3)CN(C)C4(C)C)nc2n1CC(=O)Nc1ccc(C(F)(F)F)cc1Cl [WO2025049746, Example 261]
